Measurements reported in ChEMBL document CHEMBL1795213, “Design, synthesis and biological activity of novel peptidyl benzyl ketone FVIIa inhibitors” (Bioorg Med Chem Lett, 2011).
pIC50, pKi: −log10 of the molar value. ≈ marks a conversion by molar mass, not a printed value.

What was measured:
[1] = biological target: T1, Coagulation factor VII (Homo sapiens, UniProt P08709); test: Inhibition of recombinant F7a using S-2288 as substrate after 15 mins by competitive binding assay
T1 sequence (P08709 whole entry): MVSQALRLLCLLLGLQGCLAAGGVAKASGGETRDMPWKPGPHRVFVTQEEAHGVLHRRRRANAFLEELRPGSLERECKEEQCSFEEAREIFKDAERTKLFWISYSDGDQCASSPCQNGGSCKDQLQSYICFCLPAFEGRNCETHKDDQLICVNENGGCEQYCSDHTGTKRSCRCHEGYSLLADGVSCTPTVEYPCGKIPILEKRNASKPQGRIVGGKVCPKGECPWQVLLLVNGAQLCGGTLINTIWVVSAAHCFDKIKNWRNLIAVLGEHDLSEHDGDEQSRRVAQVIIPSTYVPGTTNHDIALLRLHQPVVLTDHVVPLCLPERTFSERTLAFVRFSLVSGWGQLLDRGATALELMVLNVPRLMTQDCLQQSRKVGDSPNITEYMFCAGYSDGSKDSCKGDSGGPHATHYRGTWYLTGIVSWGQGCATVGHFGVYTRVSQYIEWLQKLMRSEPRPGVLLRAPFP

[2] = Solubility of the compound in buffer; assay type: physicochemical
[3] = biological target: T2, Coagulation factor X (Homo sapiens, UniProt P00742); test: Inhibition of F10a using S-2288 as substrate after 15 mins by competitive binding assay
[4] = biological target: T3, Prothrombin (Homo sapiens, UniProt P00734); test: Inhibition of thrombin using S-2288 as substrate after 15 mins by competitive binding assay
[5] = biological target: T1, Coagulation factor VII; test: Inhibition of recombinant F7a using S-2288 as substrate after 15 mins by linear fitting analysis
[6] = biological target: T3, Prothrombin; test: Inhibition of thrombin using S-2288 as substrate after 15 mins by competitive binding assay relative to control
[7] = biological target: T2, Coagulation factor X; test: Inhibition of F10a using S-2288 as substrate after 15 mins by competitive binding assay relative to control
[8] = biological target: T4, Coagulation factor VII (Homo sapiens) (UniProt P08709); test: Inhibition of recombinant F7a using S-2288 as substrate after 15 mins by competitive binding assay relative to control
T4 sequence (whole entry): T1 sequence (P08709 whole entry)

pIC50 [1] | solubility [2] [µM] | Compound | further results
< 2.87 | 400 (≈ 222 µg/mL) | CC(=O)N[C@@H](Cc1ccc(O)cc1)C(=O)N[C@H](C(=O)N[C@@H](CCCNC(=N)N)C(=O)Cc1ccccc1)[C@@H](C)O | –
– | 400 (≈ 398 µg/mL) | Cc1c(C)c(S(=O)(=O)NC(=N)NCCCC[C@H](NC(=O)[C@H](CC(C)C)NC(=O)[C@H](Cc2ccc(OCc3ccccc3)cc2)NC(=O)OC(C)(C)C)C(=O)Cc2ccccc2)c(C)c2c1OC(C)(C)CC2 | –
– | 400 (≈ 369 µg/mL) | Cc1c(C)c(S(=O)(=O)NC(=N)NCCCC[C@H](NC(=O)[C@H](Cc2ccccc2)NC(=O)[C@H](Cc2ccccc2)NC(=O)OC(C)(C)C)C(=O)Cc2ccccc2)c(C)c2c1OC(C)(C)CC2 | –
< 2.83 | 400 (≈ 217 µg/mL) | N=C(N)NCCC[C@H](NC(=O)[C@H](Cc1ccccc1)NC(=O)[C@@H](N)Cc1ccccc1)C(=O)Cc1ccccc1 | –
– | – | C[C@@H](O)[C@H](NC(=O)[C@@H](N)Cc1ccc(O)cc1)C(=O)N[C@@H](CCCCN=C(N)N)C(=O)Cc1ccccc1 | pIC50 [3]: < 2.87; pIC50 [4]: < 2.87
3.96 | 400 (≈ 271 µg/mL) | N=C(N)NCCC[C@H](NC(=O)[C@H](Cc1ccccc1)NC(=O)[C@H](Cc1ccccc1)NC(=O)OCc1ccccc1)C(=O)Cc1ccccc1 | pKi [5]: 4.05
4.80 | 400 (≈ 271 µg/mL) | N=C(N)NCCC[C@H](NC(=O)[C@H](Cc1ccccc1)NC(=O)[C@@H](Cc1ccccc1)NC(=O)OCc1ccccc1)C(=O)Cc1ccccc1 | pKi [5]: 5.10
– | 400 (≈ 406 µg/mL) | CC(=O)N[C@@H](Cc1ccc(OCc2ccccc2)cc1)C(=O)N[C@H](C(=O)N[C@@H](CCCCNC(=N)NS(=O)(=O)c1c(C)c(C)c2c(c1C)CCC(C)(C)O2)C(=O)Cc1ccccc1)[C@@H](C)OCc1ccccc1 | –
– | 400 (≈ 369 µg/mL) | Cc1c(C)c(S(=O)(=O)NC(=N)NCCCC[C@H](NC(=O)[C@H](Cc2ccccc2)NC(=O)[C@@H](Cc2ccccc2)NC(=O)OC(C)(C)C)C(=O)Cc2ccccc2)c(C)c2c1OC(C)(C)CC2 | –
– | 400 (≈ 305 µg/mL) | Cc1c(C)c(S(=O)(=O)NC(=N)NCCC[C@H](NC(=O)[C@H](Cc2ccccc2)NC(=O)OC(C)(C)C)C(=O)Cc2ccccc2)c(C)c2c1OC(C)(C)CC2 | –
– | 400 (≈ 451 µg/mL) | Cc1c(C)c(S(=O)(=O)NC(=N)NCCCC[C@H](NC(=O)[C@@H](NC(=O)[C@H](Cc2ccc(OCc3ccccc3)cc2)NS(=O)(=O)Cc2ccccc2)[C@@H](C)OCc2ccccc2)C(=O)Cc2ccccc2)c(C)c2c1OC(C)(C)CC2 | –
< 3.24 | 400 (≈ 265 µg/mL) | CC(C)C[C@H](NC(=O)[C@H](Cc1ccccc1)NS(=O)(=O)Cc1ccccc1)C(=O)N[C@@H](CCCNC(=N)N)C(=O)Cc1ccccc1 | –
– | 400 (≈ 291 µg/mL) | Cc1c(C)c(S(=O)(=O)NC(=N)NCCC[C@H](NC(=O)[C@H](CC(C)C)NC(=O)OC(C)(C)C)C(=O)Cc2ccccc2)c(C)c2c1OC(C)(C)CC2 | –
4.59 | 400 (≈ 279 µg/mL) | N=C(N)NCCC[C@H](NC(=O)[C@H](Cc1ccccc1)NC(=O)[C@H](Cc1ccccc1)NS(=O)(=O)Cc1ccccc1)C(=O)Cc1ccccc1 | pKi [5]: 4.37
– | 400 (≈ 356 µg/mL) | Cc1c(C)c(S(=O)(=O)NC(=N)NCCCC[C@H](NC(=O)[C@H](CC(C)C)NC(=O)[C@H](Cc2ccccc2)NC(=O)OC(C)(C)C)C(=O)Cc2ccccc2)c(C)c2c1OC(C)(C)CC2 | –
– | 400 (≈ 383 µg/mL) | Cc1c(C)c(S(=O)(=O)NC(=N)NCCCC[C@H](NC(=O)[C@H](Cc2ccccc2)NC(=O)[C@H](Cc2ccccc2)NC(=O)OCc2ccccc2)C(=O)Cc2ccccc2)c(C)c2c1OC(C)(C)CC2 | –
– | – | C[C@@H](O)[C@H](NC(=O)[C@@H](N)Cc1ccc(O)cc1)C(=O)N[C@@H](CCCCNC(=N)N)C(=O)Cc1ccccc1 | inhibition [6]: 5.5%; inhibition [7]: 30.4%; inhibition [8]: 18.9%
– | 400 (≈ 383 µg/mL) | Cc1c(C)c(S(=O)(=O)NC(=N)NCCCC[C@H](NC(=O)[C@H](Cc2ccccc2)NC(=O)[C@@H](Cc2ccccc2)NC(=O)OCc2ccccc2)C(=O)Cc2ccccc2)c(C)c2c1OC(C)(C)CC2 | –
3.19 | 400 (≈ 279 µg/mL) | N=C(N)NCCC[C@H](NC(=O)[C@H](Cc1ccccc1)NC(=O)[C@@H](Cc1ccccc1)NS(=O)(=O)Cc1ccccc1)C(=O)Cc1ccccc1 | –
< 3.40 | 400 (≈ 234 µg/mL) | CC(=O)N[C@@H](Cc1ccccc1)C(=O)N[C@@H](Cc1ccccc1)C(=O)N[C@@H](CCCNC(=N)N)C(=O)Cc1ccccc1 | –
– | 400 (≈ 322 µg/mL) | Cc1c(C)c(S(=O)(=O)NC(=N)NCCC[C@H](NC(=O)[C@@H](NC(=O)OC(C)(C)C)[C@@H](C)OCc2ccccc2)C(=O)Cc2ccccc2)c(C)c2c1OC(C)(C)CC2 | –
– | 400 (≈ 420 µg/mL) | Cc1c(C)c(S(=O)(=O)NC(=N)NCCCC[C@H](NC(=O)[C@H](CC(C)C)NC(=O)[C@H](Cc2ccc(OCc3ccccc3)cc2)NS(=O)(=O)Cc2ccccc2)C(=O)Cc2ccccc2)c(C)c2c1OC(C)(C)CC2 | –
– | 400 (≈ 346 µg/mL) | CC(=O)N[C@@H](Cc1ccccc1)C(=O)N[C@@H](Cc1ccccc1)C(=O)N[C@@H](CCCCNC(=N)NS(=O)(=O)c1c(C)c(C)c2c(c1C)CCC(C)(C)O2)C(=O)Cc1ccccc1 | –

Compound | pIC50 [1] | solubility [2] [µM] | further results
C[C@@H](O)[C@H](NC(=O)[C@@H](N)Cc1ccc(O)cc1)C(=O)N[C@@H](CCCNC(=N)N)C(=O)Cc1ccccc1 | < 2.87 | 400 (≈ 205 µg/mL) | –
